Test results reported in US6656946B2, “Aminoquinazolines which inhibit signal transduction mediated by tyrosine kinases” (Boehringer Ingelheim Pharma KG, priority 2000, dated 2003).

target: T1, human EGF-R (Homo sapiens, UniProt P00533); assay: Inhibition of EGF-dependent proliferation of F/L-HERc cells; type: cell-based; details: F/L-HERc cells (murine IL-3-dependent line expressing human EGF-R), stimulated with EGF 20 ng/ml, 48 hours, Cell Titer 96 AQueous assay
T1 construct: expressed in transfected cells; host or cells: F/L-HERc (murine IL-3-dependent FDC-P1 cells transduced with retroviral vector LXSN carrying the human EGF-R cDNA; packaging line GP+E86)
Description: A cell line of murine origin dependent on interleukin-3-(IL-3) which was genetically modified to express functional human EGF-R was used here. The proliferation of these cells known as F/L-HERc can therefore be stimulated either by murine IL-3 or by EGF (cf. von Rüden, T. et al. in EMBO J. 7, 2749-2756 (1988) and Pierce, J. H. et al. in Science 239, 628-631 (1988)).
The starting material used for the F/L-HERc cells was the cell line FDC-P1, the production of which has been described by Dexter, T. M. et al. in J. Exp. Med. 152, 1036-1047 (1980). Alternatively, however, other growth-factor-dependent cells may also be used (cf. for example Pierce, J. H. et al. in Science 239, 628-631 (1988), Shibuya, H. et al. in Cell 70, 57-67 (1992) and Alexander, W. S. et al. in EMBO J. 10, 3683-3691 (1991)). For expressing the human EGF-R cDNA (cf. Ullrich, A. et al. in Nature 309, 418-425 (1984)) recombinant retroviruses were used as described by von Rüden, T. et al., EMBO J. 7, 2749-2756 (1988), except that the retroviral vector LXSN (cf. Miller, A. D. et al. in BioTechniques 7, 980-990 (1989)) was used for the expression of the EGF-R cDNA and the line GP+E86 (cf. Markowitz, D. et al. in J. Virol. 62, 1120-1124 (1988)) was used as the packaging cell.
The test was performed as follows:
F/L-HERc cells were cultivated in RPMI/1640 medium (BioWhittaker), supplemented with 10% foetal calf serum (FCS, Boehringer Mannheim), 2 mM glutamine (BioWhittaker), standard antibiotics and 20 ng/ml of human EGF (Promega), at 37° C. and 5% CO2. In order to investigate the inhibitory activity of the compounds according to the invention, 1.5×10^4 cells per well were cultivated in triplicate in 96-well dishes in the above medium (200 μl), the cell proliferation being stimulated with either EGF (20 ng/ml) or murine IL-3. The IL-3 used was obtained from culture supernatants of the cell line X63/0 mIL-3 (cf. Karasuyama, H. et al. in Eur. J. Immunol. 18, 97-104 (1988)). The compounds according to the invention were dissolved in 100% dimethylsulphoxide (DMSO) and added to the cultures in various dilutions, the maximum DMSO concentration being 1%. The cultures were incubated for 48 hours at 37° C.
In order to determine the inhibitory activity of the compounds according to the invention the relative cell number was measured in O.D. units using the Cell Titer 96™ AQueous Non-Radioactive Cell Proliferation Assay (Promega). The relative cell number was calculated as a percentage of the control (F/LHERc cells without inhibitor) and the concentration of active substance which inhibits the proliferation of the cells by 50% (IC50) was derived therefrom.

T1 sequence (P00533 25-1210): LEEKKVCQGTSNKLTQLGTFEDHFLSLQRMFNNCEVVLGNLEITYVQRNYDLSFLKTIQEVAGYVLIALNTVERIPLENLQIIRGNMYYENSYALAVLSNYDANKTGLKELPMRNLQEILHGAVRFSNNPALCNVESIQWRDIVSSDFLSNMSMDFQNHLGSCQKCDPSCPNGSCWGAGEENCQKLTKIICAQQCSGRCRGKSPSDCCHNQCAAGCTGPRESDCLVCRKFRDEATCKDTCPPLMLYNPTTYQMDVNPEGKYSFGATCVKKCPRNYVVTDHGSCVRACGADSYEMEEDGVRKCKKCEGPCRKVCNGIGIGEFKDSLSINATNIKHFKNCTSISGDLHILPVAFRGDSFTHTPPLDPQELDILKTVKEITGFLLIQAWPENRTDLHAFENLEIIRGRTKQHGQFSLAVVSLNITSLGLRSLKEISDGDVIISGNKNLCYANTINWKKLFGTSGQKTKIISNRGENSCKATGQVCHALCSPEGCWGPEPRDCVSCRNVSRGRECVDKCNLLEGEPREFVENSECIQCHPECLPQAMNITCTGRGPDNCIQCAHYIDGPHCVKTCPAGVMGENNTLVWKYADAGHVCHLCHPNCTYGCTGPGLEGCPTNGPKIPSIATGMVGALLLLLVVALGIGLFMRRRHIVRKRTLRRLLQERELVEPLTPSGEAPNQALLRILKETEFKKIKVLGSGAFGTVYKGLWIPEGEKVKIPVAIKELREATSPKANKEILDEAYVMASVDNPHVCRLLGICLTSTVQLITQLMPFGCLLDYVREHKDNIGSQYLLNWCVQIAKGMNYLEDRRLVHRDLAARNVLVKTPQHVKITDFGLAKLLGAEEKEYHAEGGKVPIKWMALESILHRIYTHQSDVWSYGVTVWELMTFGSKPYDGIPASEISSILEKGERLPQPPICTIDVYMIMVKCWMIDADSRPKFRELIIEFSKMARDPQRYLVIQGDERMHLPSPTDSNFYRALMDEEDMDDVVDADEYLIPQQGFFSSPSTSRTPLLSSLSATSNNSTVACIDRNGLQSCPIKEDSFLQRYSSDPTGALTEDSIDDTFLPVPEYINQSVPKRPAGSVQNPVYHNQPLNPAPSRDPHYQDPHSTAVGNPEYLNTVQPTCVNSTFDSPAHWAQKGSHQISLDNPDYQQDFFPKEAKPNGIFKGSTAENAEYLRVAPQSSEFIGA

Row | Compound | IC50 [nM]
1 | CC1(C)CN(CCOc2cc3ncnc(Nc4ccc(F)c(Cl)c4)c3cc2OCC2CCCC2)CC(=O)O1 [Example 1, 4-[(3-Chloro-4-fluorophenyl)amino]-6-cyclopentylmethoxy-7-[2-(6,6-dimethyl-2-oxo-morpholin-4-yl)-ethoxy]-quinazoline] | 59
2 | CN(CCOc1cc2ncnc(Nc3ccc(F)c(Cl)c3)c2cc1OC1CCCC1)C1COC(=O)C1 (centres unmarked) [2(1), 4-[(3-Chloro-4-fluorophenyl)amino]-6-cyclopentyloxy-7-{2-[N-(2-oxo-tetrahydrofuran-4-yl)-N-methyl-amino]-ethoxy}-quinazoline] | 36
3 | CC1(C)CN(CCOc2cc3ncnc(Nc4ccc(F)c(Cl)c4)c3cc2OCC2CC2)CC(=O)O1 [1(1), 4-[(3-Chloro-4-fluorophenyl)amino]-6-cyclopropylmethoxy-7-[2-(6,6-dimethyl-2-oxo-morpholin-4-yl)-ethoxy]-quinazoline] | 29
4 | CC1(C)CN(CCCOc2cc3c(Nc4ccc(F)c(Cl)c4)ncnc3cc2OC2CCC2)CC(=O)O1 [1(2), 4-[(3-Chloro-4-fluorophenyl)amino]-7-cyclobutyloxy-6-[3-(6,6-dimethyl-2-oxo-morpholin-4-yl)-propyloxy]-quinazoline] | 29

tested on: not given; assay: not given; details: not given

Row | Compound | melting point [°C]
5 | COc1cc2ncnc(Nc3cccc(Br)c3)c2cc1OCCN1CC(=O)O[C@@H](C)C1 [Example 3, 4-[(3-Bromo-phenyl)amino]-6-[2-((S)-6-methyl-2-oxo-morpholin-4-yl)-ethoxy]-7-methoxy-quinazoline] | 190
6 | CC1(C)CN(CCOc2cc3c(Nc4ccc(F)c(Cl)c4)ncnc3cc2O[C@@H]2CCOC2)CC(=O)O1 [Example 3(28), 4-[(3-chloro-4-fluorophenyl)amino]-6-[2-(6,6-dimethyl-2-oxo-morpholin-4-yl)-ethoxy]-7-((R)-tetrahydrofuran-3-yloxy)-quinazoline] | 195 to 196
7 | CN(CCCOc1cc2c(Nc3ccc(F)c(Cl)c3)ncnc2cc1OC1CCC1)C1COC(=O)C1 (centres unmarked) [Example 2(2), 4-[(3-Chloro-4-fluorophenyl)amino]-6-{3-[N-(2-oxo-tetrahydrofuran-4-yl)-N-methyl-amino]-propyloxy}-7-cyclobutyloxy-quinazoline] | 147.5 to 151
8 | CC1(C)CN(CCOc2cc3c(Nc4ccc(F)c(Cl)c4)ncnc3cc2OC[C@H]2CCCO2)CC(=O)O1 [Example 3(29), 4-[(3-chloro-4-fluorophenyl)amino]-6-[2-(6,6-dimethyl-2-oxo-morpholin-4-yl)-ethoxy]-7-[(R)-(tetrahydrofuran-2-yl)methoxy]-quinazoline] | 184
9 | CC1(C)CN(CCOc2cc3ncnc(Nc4ccc(F)c(Cl)c4)c3cc2OC[C@@H]2CCCO2)CC(=O)O1 [Example 3(31), 4-[(3-chloro-4-fluorophenyl)amino]-7-[2-(6,6-dimethyl-2-oxo-morpholin-4-yl)-ethoxy]-6-[(S)-(tetrahydrofuran-2-yl)methoxy]-quinazoline] | 182
10 | COc1cc2ncnc(Nc3ccc(F)c(Cl)c3)c2cc1OCCN1CC(=O)OC(C)(C)C1 [Example 3(27), 4-[(3-Chloro-4-fluorophenyl)amino]-6-[2-(6,6-dimethyl-2-oxo-morpholin-4-yl)-ethoxy]-7-methoxy-quinazoline] | 229 to 232
11 | C[C@@H]1CN(CCCOc2cc3c(Nc4ccc(F)c(Cl)c4)ncnc3cc2OCC2CC2)CC(=O)O1 [Example 3(8), 4-[(3-Chloro-4-fluorophenyl)amino]-6-[3-((R)-6-methyl-2-oxo-morpholin-4-yl)-propyloxy]-7-cyclopropylmethoxy-quinazoline] | 160.5 to 163
12 | C[C@H]1CN(CCCOc2cc3c(Nc4ccc(F)c(Cl)c4)ncnc3cc2OCC2CC2)CC(=O)O1 [Example 3(9), 4-[(3-Chloro-4-fluorophenyl)amino]-6-[3-((S)-6-methyl-2-oxo-morpholin-4-yl)-propyloxy]-7-cyclopropylmethoxy-quinazoline] | 160 to 162
13 | COc1cc2ncnc(Nc3cccc(Br)c3)c2cc1OCCN1CC(=O)O[C@H](C)C1 [Example 3(1), 4-[(3-Bromo-phenyl)amino]-6-[2-((R)-6-methyl-2-oxo-morpholin-4-yl)-ethoxy]-7-methoxy-quinazoline] | 193
14 | COc1cc2ncnc(Nc3ccc(F)c(Cl)c3)c2cc1OCCN1CC(=O)O[C@@H](C)C1 [3(25), 4-[(3-Chloro-4-fluorophenyl)amino]-6-[2-((S)-6-methyl-2-oxo-morpholin-4-yl)-ethoxy]-7-methoxy-quinazoline] | 212 to 213
15 | CC1(C)CN(CCOc2cc3ncnc(Nc4ccc(F)c(Cl)c4)c3cc2O[C@H]2CCOC2)CC(=O)O1 [Example 3(30), 4-[(3-chloro-4-fluorophenyl)amino]-7-[2-(6,6-dimethyl-2-oxo-morpholin-4-yl)-ethoxy]-6-((S)-tetrahydrofuran-3-yloxy)-quinazoline] | 202 to 205
16 | CC1(C)COC(=O)CN1CCCOc1cc2c(Nc3ccc(F)c(Cl)c3)ncnc2cc1OC1CCC1 [Example 3(7), 4-[(3-Chloro-4-fluorophenyl)amino]-6-[3-(5,5-dimethyl-2-oxo-morpholin-4-yl)-propyloxy]-7-cyclobutyloxy-quinazoline] | 214 to 216
17 | CC1(C)CN(CCCOc2cc3c(Nc4ccc(F)c(Cl)c4)ncnc3cc2OC2CCC2)CC(=O)O1 [1(2), 4-[(3-Chloro-4-fluorophenyl)amino]-7-cyclobutyloxy-6-[3-(6,6-dimethyl-2-oxo-morpholin-4-yl)-propyloxy]-quinazoline] | 212 to 214
18 | COc1cc2ncnc(Nc3cccc(Br)c3)c2cc1OCCN(CC(=O)OC(C)(C)C)C[C@@H](C)O [Example 4(1), 4-[(3-Bromo-phenyl)amino]-6-(2-{N-[(tert.butyloxycarbonyl)methyl]-N-((R)-2-hydroxy-propyl)-amino}-ethoxy)-7-methoxy-quinazoline] | 130
19 | COc1cc2ncnc(Nc3ccc(F)c(Cl)c3)c2cc1OCCN1CC(=O)O[C@H](C)C1 [Example 3(2), 4-[(3-Chloro-4-fluorophenyl)amino]-6-[2-((R)-6-methyl-2-oxo-morpholin-4-yl)-ethoxy]-7-methoxy-quinazoline] | 208
20 | COc1cc2ncnc(Nc3ccc(F)c(Cl)c3)c2cc1OCCN(CC(=O)O)C[C@H](C)O [Example 3(26), 4-[(3-Chloro-4-fluorophenyl)amino]-6-{2-[N-(carboxymethyl)-N-((S)-2-hydroxy-propyl)-amino]-ethoxy}-7-methoxy-quinazoline] | 187 to 190
21 | C[C@@H]1CN(CCCOc2cc3c(Nc4ccc(F)c(Cl)c4)ncnc3cc2OC2CCC2)CC(=O)O1 [Example 3(6), 4-[(3-Chloro-4-fluorophenyl)amino]-6-[3-((R)-6-methyl-2-oxo-morpholin-4-yl)-propyloxy]-7-cyclobutyloxy-quinazoline] | 185.5 to 189.5
22 | C[C@@H]1CN(CCOc2cc3c(Nc4ccc(F)c(Cl)c4)ncnc3cc2OC2CCCC2)CC(=O)O1 [Example 3(11), 4-[(3-Chloro-4-fluorophenyl)amino]-6-[2-((R)-6-methyl-2-oxo-morpholin-4-yl)-ethoxy]-7-cyclopentyloxy-quinazoline] | 176 to 178
23 | COc1cc2ncnc(Nc3ccc(F)c(Cl)c3)c2cc1OCCCN1CC(=O)O[C@@H](C)C1 [Example 3(23), 4-[(3-Chloro-4-fluorophenyl)amino]-6-[3-((S)-6-methyl-2-oxo-morpholin-4-yl)-propyloxy]-7-methoxy-quinazoline] | 183 to 186
